Source: US7528225B2, “Peptide epitopes of apolipoprotein B” (Forskarpapatent I Syd, priority 2001, dated 2009)
Entries after “also recorded” stand apart in the source; their conditions may differ.

What was measured:
[1] = system: atherosclerosis in apo E knockout mice; assay: Peptide immunization of Apo E (−/−) mice on high cholesterol diet: atherosclerotic plaque size and composition; conditions: for Atherosclerotic plaque in the descending aorta, en face oil red O, in comparison to control (in words): Apo E (−/−) mice vs Alum control; for mean collagen content in the aortic sinus plaques: Trichrome staining; for mean collagen content in the aortic sinus plaques / Total plaque size in aortic sinus / % of plaque in aorta (flat prep.) / Oil red O (+) area (% of aortic sinus plaque) / Aortic arch plaque size: mean ± Std; for Effect on atherosclerosis in the aorta: immunization of apo E knockout mice with single peptide sequence or mixture (Table B); for Total plaque size in aortic sinus: Apo E (−/−) mice, sacrifice at 25 weeks; for % of plaque in aorta (flat prep.): descending thoracic and abdominal aorta, en face, oil red O; for Oil red O (+) area (% of aortic sinus plaque): lipid content of aortic sinus plaque
Protocol: Apo E (−/−) mice received subcutaneous primary immunization at 6-7 weeks of age, followed by an intra-peritoneal booster 3 weeks later. Mice were fed high cholesterol diet from the onset of immunization and continued until sacrifice at the age of 25 weeks.
Alum was used as immunoadjuvant and mixed with peptide conjugate with 1:1 dilution in volume. The amount of peptide in each immunization was 33 μg/100 μl per injection.
Apo E (−/−) mice from the Jackson Laboratories (Bar Harbor, Me.) received subcutaneous primary immunization at 6-7 weeks of age, followed by an intra-peritoneal booster 3 weeks later. Mice were fed high cholesterol diet from the onset of immunization and continued until sacrifice at the age of 25 weeks. Blood samples were collected 2 weeks after booster and at the time of sacrifice. Mice receiving Alum served as control. […] At the time of sacrifice, mice were anesthetized by inhalation Enflurane. Plasma was obtained by retro-orbital bleeding prior to sacrifice.
To evaluate the effect of peptide immunization on atherosclerosis formation, the plaque size at aortic sinus was assessed, aortic arch and descending thoracic and abdominal aorta. After the heart and aortic tree were perfused with normal saline at physiological pressure, the heart and proximal aorta were excised and embedded in OCT compound (Tissue-Tek) and frozen sectioned. Serial 6-μm-thick sections were collected from the appearance of at least 2 aortic valves to the disappearance of the aortic valve leaflets for aortic sinus plaque evaluation. Typically 3 consecutive sections were on one slide and a total of 25-30 slides were collected from one mouse and every fifth slide was grouped for staining. Ascending aorta and aortic arches upto left subclavian artery were also sectioned and processed similarly. Descending thoracic and abdominal aorta were processed separately for en face evaluation of plaque formation after oil red O staining.
Chicken egg albumin (Sigma) in a concentration of 0.8 g/ml water was mixed 1:1 with glycerol. Sodium azide was added to make a final concentration of sodium azide 0.2%. After descending thoracic and abdominal aorta was cleaned off surrounding tissue and fat, the segment of aorta from left subclavian artery to the level of renal artery was then carefully removed for overnight fixation in Histochoice (Amresco). Aorta was then carefully opened longitudinally and placed with luminal side up on a slide freshly coated with egg albumin solution. After albumin solution became dry, the aorta was stained with Oil red O to assess the extent of atherosclerosis with computer-assisted histomorphometry.

Apo E (−/−) mice = assay: Antibody titer against immunized peptide after immunization (mouse serum ELISA); type: in vivo; conditions: mouse serum 1/50; immunized group; mean ± Std
Protocol: Antibody titer measurement. To measure the antibody response after peptide immunization, an ELISA was developed. Antibody titer against immunized peptide was measured using blood collected at 2 weeks after booster and at sacrifice. Antibody response against 3 peptides was also determined in Alum group at the same time-points. In brief, native synthetic peptides diluted in PBS pH 7.4 (20 μg/ml) were absorbed to microtiter plate wells (Nunc MaxiSorp, Nunc, Roskilde, Denmark) in an overnight incubation at 4° C. […] After rinsing, deposition of antibodies directed to the peptides was detected by using biotinylated rabbit anti-mouse Ig antibodies (Dako A/S, Glostrup, Denmark) appropriately diluted in TBS-T. After another incubation for 2 h at room temperature the plates were washed and the bound biotinylated antibodies were detected by alkaline phosphatase conjugated streptavidin (Sigma), incubated for 2 h at room temperature. Using phosphatase substrate kit (Pierce) developed the colour reaction and the absorbance at 405 nm was measured after 1 h of incubation at room temperature. Mean values were calculated after the background was subtracted.

ATRFKHLRKYTYNYQAQSSS [Peptide 2]
Atherosclerotic plaque in the descending aorta, en face oil red O, in comparison to control (in words) ([1]; listed as peptide No. 2): substantially reduced atherosclerosis; also recorded: significantly reduced atherosclerotic burden
mean collagen content in the aortic sinus plaques [1]: 40.0±7.7%
Effect on atherosclerosis in the aorta [1]: −67.7%
macrophage infiltration in the aortic sinus plaques (MOMA-2) ([1]; immunohistochemistry): significantly reduced macrophage infiltration
Increase of antibody titer against immunized peptide after immunization (Apo E (−/−) mice): 2.4±1.0 fold

FPDLGQEVALNANTKNQKIR [Peptide 240]
Effect on atherosclerosis in the aorta [1]: 0%

EEEMLENVSLVCPKDATRFK [Peptide 1]
Atherosclerotic plaque in the descending aorta, en face oil red O, in comparison to control (in words) ([1]; listed as Peptide No 1): did not produce a significant reduction in atherosclerosis
Total plaque size in aortic sinus [1]: 0.48 ± 0.14 mm^2
mean collagen content in the aortic sinus plaques [1]: 35.6±8.5%
% of plaque in aorta (flat prep.) [1]: 17 ± 4.3%
Effect on atherosclerosis in the aorta [1]: −15.4%
Oil red O (+) area (% of aortic sinus plaque) [1]: 32.0 ± 8.1%
Aortic arch plaque size [1]: 0.054 ± 0.027 mm^2
Effect of immunisation on the development of atherosclerosis (in words) ([1]; summary statement): lacks total effect
Increase of antibody titer against immunized peptide after immunization (Apo E (−/−) mice): 6.1±3.1 fold

KTTKQSFDLSVKAQYKKNKH [Peptide 210]
Effect on atherosclerosis in the aorta [1]: −57.9%

HTFLIYITELLKKLQSTTVM [Peptide 301]
Atherosclerotic plaque in the descending aorta, en face oil red O, in comparison to control (in words) [1]: substantially reduced atherosclerosis
Total plaque size in aortic sinus [1]: 0.46 ± 0.16 mm^2
% of plaque in aorta (flat prep.) [1]: 8.9 ± 2.2 %
Effect on atherosclerosis in the aorta [1]: −55.2%
Oil red O (+) area (% of aortic sinus plaque) [1]: 23.8 ± 4.1%
Aortic arch plaque size [1]: 0.050 ± 0.024 mm^2

VISIPRLQAEARSEILAHWS [Peptide 74]
Effect on atherosclerosis in the aorta [1]: −31.0%

IEIGLEGKGFEPTLEALFGK [Peptide 45]
Effect on atherosclerosis in the aorta [1]: −47.4%
